Test results taken from the NIST ThermoML archive (doi:10.1021/je030136n).

Assay: xn = mol fraction of the nth substance listed
Details: Liquid, Pulse-echo method

CCCCCCC [heptane] + CCCO
Details | speed of sound [m/s]
298.17 K, 30400 kPa, x2 = 0.3008 | 1319.3
298.17 K, 45590 kPa, x2 = 0.3008 | 1394.1
298.17 K, 60790 kPa, x2 = 0.3008 | 1461.5
298.17 K, 60790 kPa, x2 = 0.7986 | 1471.8
298.17 K, 75990 kPa, x2 = 0.1008 | 1526.8
298.17 K, 75990 kPa, x2 = 0.3008 | 1523.2
298.17 K, 75990 kPa, x2 = 0.7986 | 1529.5
298.17 K, 91190 kPa, x2 = 0.1008 | 1584.5
298.17 K, 91190 kPa, x2 = 0.7016 | 1580.7
298.17 K, 111450 kPa, x2 = 0.7016 | 1647.6
298.18 K, 100 kPa, x2 = 0.3008 | 1128.6
298.18 K, 100 kPa, x2 = 0.6027 | 1144.3
298.18 K, 45590 kPa, x2 = 0 | 1400.1
298.18 K, 60790 kPa, x2 = 0.1008 | 1464.2
298.18 K, 60790 kPa, x2 = 0.7016 | 1467.2
298.18 K, 75990 kPa, x2 = 0.7016 | 1526
298.18 K, 101320 kPa, x2 = 0.7016 | 1614.9
298.18 K, 111450 kPa, x2 = 0.1008 | 1655.1
298.18 K, 121580 kPa, x2 = 0.7016 | 1678.9
298.19 K, 30400 kPa, x2 = 0.6027 | 1326.4
298.19 K, 45590 kPa, x2 = 0.6027 | 1398.6
298.19 K, 45590 kPa, x2 = 0.7016 | 1403
298.19 K, 60790 kPa, x2 = 0 | 1468.7
298.19 K, 91190 kPa, x2 = 0.3008 | 1580.1
298.19 K, 91190 kPa, x2 = 0.6027 | 1579
298.2 K, 100 kPa, x2 = 0.7016 | 1154
298.2 K, 30400 kPa, x2 = 0.7016 | 1332.1
298.2 K, 121580 kPa, x2 = 0.7986 | 1679.9
298.22 K, 75990 kPa, x2 = 0.6027 | 1523.5
298.23 K, 60790 kPa, x2 = 0.6027 | 1463.6
298.25 K, 101320 kPa, x2 = 0.7986 | 1616.7
298.26 K, 91190 kPa, x2 = 0.7986 | 1583
303.06 K, 100 kPa, x2 = 0 | 1108.9
303.07 K, 45590 kPa, x2 = 0 | 1384.4
303.08 K, 60790 kPa, x2 = 0.6027 | 1449.5
303.08 K, 101320 kPa, x2 = 0.6027 | 1601.2
303.09 K, 101320 kPa, x2 = 0.7986 | 1604.9
303.1 K, 75990 kPa, x2 = 0.7986 | 1516.7
303.1 K, 91190 kPa, x2 = 0.7986 | 1570.9
303.1 K, 101320 kPa, x2 = 0 | 1612.6
303.1 K, 111450 kPa, x2 = 0.6027 | 1634.7
303.1 K, 121580 kPa, x2 = 0 | 1681.2
303.11 K, 111450 kPa, x2 = 0.4992 | 1635.3
303.11 K, 121580 kPa, x2 = 0.4992 | 1667.7
303.11 K, 121580 kPa, x2 = 0.7986 | 1668.6
303.12 K, 100 kPa, x2 = 0.7986 | 1147.6
303.12 K, 30400 kPa, x2 = 0.7986 | 1324.1
303.12 K, 45590 kPa, x2 = 0.7016 | 1388.2
303.12 K, 45590 kPa, x2 = 0.7986 | 1394.5
303.12 K, 101320 kPa, x2 = 0.4992 | 1601.3
303.12 K, 111450 kPa, x2 = 0.7986 | 1637.5
303.12 K, 121580 kPa, x2 = 0.7016 | 1667.3
303.13 K, 30400 kPa, x2 = 0 | 1307
303.13 K, 30400 kPa, x2 = 0.7016 | 1316.2
303.13 K, 60790 kPa, x2 = 0.7986 | 1458.1
303.13 K, 75990 kPa, x2 = 0.7016 | 1512.7
303.13 K, 91190 kPa, x2 = 0.4992 | 1565.8
303.13 K, 91190 kPa, x2 = 0.7016 | 1567.8
303.13 K, 101320 kPa, x2 = 0.7016 | 1602.5
303.13 K, 111450 kPa, x2 = 0.7016 | 1635.6
303.14 K, 100 kPa, x2 = 0.7016 | 1134.5
303.14 K, 30400 kPa, x2 = 0.4992 | 1306.5
303.14 K, 30400 kPa, x2 = 0.6027 | 1310
303.14 K, 60790 kPa, x2 = 0.7016 | 1453.1
303.14 K, 75990 kPa, x2 = 0.4992 | 1509.2
303.14 K, 91190 kPa, x2 = 0.6027 | 1565.9
303.15 K, 100 kPa, x2 = 0.6027 | 1124
303.15 K, 45590 kPa, x2 = 0.6027 | 1383.2
303.15 K, 60790 kPa, x2 = 0.4992 | 1448
303.15 K, 75990 kPa, x2 = 0.6027 | 1509.9
303.15 K, 111450 kPa, x2 = 0 | 1647.6
303.16 K, 100 kPa, x2 = 0.4992 | 1116
303.16 K, 15200 kPa, x2 = 0.1008 | 1213.6
303.16 K, 45590 kPa, x2 = 0.4992 | 1380.9
303.16 K, 121580 kPa, x2 = 0.3008 | 1669.9
303.17 K, 15200 kPa, x2 = 0 | 1218.6
303.17 K, 75990 kPa, x2 = 0 | 1517.2
303.17 K, 101320 kPa, x2 = 0.1008 | 1607.1
303.17 K, 101320 kPa, x2 = 0.3008 | 1602.4
303.18 K, 60790 kPa, x2 = 0 | 1453.7
303.18 K, 91190 kPa, x2 = 0 | 1575.7
303.18 K, 111450 kPa, x2 = 0.1008 | 1642
303.18 K, 121580 kPa, x2 = 0.6027 | 1666.6
303.19 K, 121580 kPa, x2 = 0.1008 | 1675.4
303.2 K, 100 kPa, x2 = 0.3008 | 1107.1
303.2 K, 30400 kPa, x2 = 0.3008 | 1301.8
303.2 K, 60790 kPa, x2 = 0.1008 | 1448.8
303.21 K, 30400 kPa, x2 = 0.1008 | 1301.9
303.21 K, 45590 kPa, x2 = 0.1008 | 1379.3
303.21 K, 60790 kPa, x2 = 0.3008 | 1446
303.21 K, 75990 kPa, x2 = 0.1008 | 1512.1
303.21 K, 75990 kPa, x2 = 0.3008 | 1508.5
303.21 K, 91190 kPa, x2 = 0.1008 | 1570.5
303.21 K, 91190 kPa, x2 = 0.3008 | 1566.1
303.22 K, 100 kPa, x2 = 0.1008 | 1103.8
303.23 K, 45590 kPa, x2 = 0.3008 | 1377.7
303.25 K, 111450 kPa, x2 = 0.3008 | 1636.9
